Experimental data as given in US9138436B2, “Inhibitors of Bruton's tyrosine kinase” (PHARMACYCLICS LLC, priority 2011, dated 2015).

What follows are compounds tested against Btk (Homo sapiens, UniProt Q06187) (assay: Btk in vitro inhibitory activity, acellular kinase assay (TR-FRET)).
Assay type: biochemical
Protocol: Btk kinase activity is determined using a time-resolved fluorescence resonance energy transfer (TR-FRET) methodology. Measurements are performed in a reaction volume of 50 μL using 96-well assay plates. Kinase enzyme, inhibitor, ATP (at the Km for the kinase), and 1 μM peptide substrate (Biotin-AVLESEEELYSSARQ-NH2) are incubated in a reaction buffer composed of 20 mM Tris, 50 mM NaCl, MgCl2 (5-25 mM depending on the kinase), MnCl2 (0-10 mM), 1 mM DTT, 0.1 mM EDTA, 0.01% bovine serum albumin, 0.005% Tween-20, and 10% DMSO at pH 7.4 for one hour. The reaction is quenched by the addition of 1.2 equivalents of EDTA (relative to divalent cation) in 25 μL of 1× Lance buffer (Perkin-Elmer). Streptavidin-APC (Perkin-Elmer) and Eu-labeled p-Tyr100 antibody (Perkin-Elmer) in 1× Lance buffer are added in a 25 μL volume to give final concentrations of 100 nM and 2.5 nM, respectively, and the mixture is allowed to incubate for one hour. The TR-FRET signal is measured on a multimode plate reader with an excitation wavelength (λEx) of 330 nm and detection wavelengths (λEm) of 615 and 665 nm. Activity is determined by the ratio of the fluorescence at 665 nm to that at 615 nm. For each compound, enzyme activity is measured at various concentrations of compound. Negative control reactions are performed in the absence of inhibitor in replicates of six, and two no-enzyme controls were used to determine baseline fluorescence levels. Inhibition constants, Ki(app), are obtained using the program BatchKi (Kuzmic et al. (2000), Anal. Biochem. 286:45-50). IC50s are obtained according to the equation: IC50={Ki(app)/(1+[ATP]/Km^ATP)}+[E]total/2;
For all kinases, [ATP]=Km^ATP, [Btk]total=0.5 nM and [Lck]total=6 nM.

Chain of Btk (Q06187 whole entry): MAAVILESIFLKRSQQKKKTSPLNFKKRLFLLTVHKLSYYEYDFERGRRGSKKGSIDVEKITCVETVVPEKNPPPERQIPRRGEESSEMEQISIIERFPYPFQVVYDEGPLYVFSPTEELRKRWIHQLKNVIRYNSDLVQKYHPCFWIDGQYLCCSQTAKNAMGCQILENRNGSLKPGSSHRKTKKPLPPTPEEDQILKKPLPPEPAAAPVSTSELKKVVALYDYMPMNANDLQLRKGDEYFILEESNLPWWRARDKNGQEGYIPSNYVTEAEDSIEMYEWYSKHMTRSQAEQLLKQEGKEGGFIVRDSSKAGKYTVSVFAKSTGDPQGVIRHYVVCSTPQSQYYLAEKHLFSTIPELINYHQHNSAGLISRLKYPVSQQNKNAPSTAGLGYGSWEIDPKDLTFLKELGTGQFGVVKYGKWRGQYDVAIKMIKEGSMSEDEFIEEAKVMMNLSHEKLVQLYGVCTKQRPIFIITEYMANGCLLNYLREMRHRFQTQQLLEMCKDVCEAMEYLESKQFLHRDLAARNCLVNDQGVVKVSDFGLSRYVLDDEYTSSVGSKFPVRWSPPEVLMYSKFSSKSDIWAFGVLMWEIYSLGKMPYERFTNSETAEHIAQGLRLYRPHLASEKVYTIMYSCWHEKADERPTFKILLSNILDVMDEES

IC50, < 100 nM:
Nc1ncnc2c1c(-c1ccc(Oc3ccccc3)cc1)nn2[C@@H]1CCN(C(=O)/C=C/CNC2CCOCC2)C1 [Example 1d, (R,E)-1-(3-(4-amino-3-(4-phenoxyphenyl)-1H-pyrazolo[3,4-d]pyrimidin-1-yl)pyrrolidin-1-yl)-4-(tetrahydro-2H-pyran-4-ylamino)but-2-en-1-one]
COCCN(C/C=C/C(=O)N1CC[C@@H](n2nc(-c3ccc(Oc4ccccc4)cc3)c3c(N)ncnc32)C1)C1CC1 [Example 2p, (R,E)-1-(3-(4-amino-3-(4-phenoxyphenyl)-1H-pyrazolo[3,4-d]pyrimidin-1-yl)pyrrolidin-1-yl)-4-(cyclopropyl(2-methoxyethyl)amino)but-2-en-1-one]
CN(C/C=C/C(=O)N1CC[C@@H](n2nc(-c3ccc(Oc4ccccc4)cc3)c3c(N)ncnc32)C1)C1CCOCC1 [Example 1k, (R,E)-1-(3-(4-amino-3-(4-phenoxyphenyl)-1H-pyrazolo[3,4-d]pyrimidin-1-yl)pyrrolidin-1-yl)-4-(methyl(tetrahydro-2H-pyran-4-yl)amino)but-2-en-1-one]
CN(C/C=C/C(=O)N1CC[C@@H](n2nc(-c3ccc(Oc4ccccc4)cc3)c3c(N)ncnc32)C1)C1CCC1 [Example 2aa, (R,E)-1-(3-(4-amino-3-(4-phenoxyphenyl)-1H-pyrazolo[3,4-d]pyrimidin-1-yl)pyrrolidin-1-yl)-4-(cyclobutyl(methyl)amino)but-2-en-1-one]
CN(C/C=C/C(=O)Nc1cccc(-n2nc(-c3ccc(Oc4ccccc4)cc3)c3c(N)ncnc32)c1)C1CC1 [Example 7f, (E)-N-(3-(4-amino-3-(4-phenoxyphenyl)-1H-pyrazolo[3,4-d]pyrimidin-1-yl)phenyl)-4-(cyclopropyl(methyl)amino)but-2-enamide]
CN(C/C=C/C(=O)N1CC[C@@H](n2nc(-c3ccc(Oc4ccccc4)cc3)c3c(N)ncnc32)C1)C1CCCC1 [Example 2y, (R,E)-1-(3-(4-amino-3-(4-phenoxyphenyl)-1H-pyrazolo[3,4-d]pyrimidin-1-yl)pyrrolidin-1-yl)-4-(cyclopentyl(methyl)amino)but-2-en-1-one]
CN(C/C=C/C(=O)Nc1cccc(-n2nc(-c3ccc(Oc4ccccc4)cc3)c3c(N)ncnc32)c1)C1CCC1 [Example 7g, (E)-N-(3-(4-amino-3-(4-phenoxyphenyl)-1H-pyrazolo[3,4-d]pyrimidin-1-yl)phenyl)-4-(cyclobutyl(methyl)amino)but-2-enamide]
CN(C/C=C/C(=O)N1CC[C@@H](n2nc(-c3ccc(Oc4ccccc4)cc3)c3c(N)ncnc32)C1)C1CC1 [Example 2u, (R,E)-1-(3-(4-amino-3-(4-phenoxyphenyl)-1H-pyrazolo[3,4-d]pyrimidin-1-yl)pyrrolidin-1-yl)-4-(cyclopropyl(methyl)amino)but-2-en-1-one]
CN(C/C=C/C(=O)N1CCC[C@@H](n2nc(-c3ccc(Oc4ccccc4)cc3)c3c(N)ncnc32)C1)c1ccccn1 [Example 1t, (R,E)-1-(3-(4-amino-3-(4-phenoxyphenyl)-1H-pyrazolo[3,4-d]pyrimidin-1-yl)piperidin-1-yl)-4-(methyl(pyridin-2-yl)amino)but-2-en-1-one]
Nc1ncnc2c1c(-c1ccc(Oc3ccccc3)cc1)nn2[C@@H]1CCN(C(=O)/C=C/CN[C@@H]2CCOC2)C1 [Example 2c, (E)-1-((R)-3-(4-amino-3-(4-phenoxyphenyl)-1H-pyrazolo[3,4-d]pyrimidin-1-yl)pyrrolidin-1-yl)-4-((R)-tetrahydrofuran-3-ylamino)but-2-en-1-one]
CN(C/C=C/C(=O)N1CCC[C@@H](n2nc(-c3ccc(Oc4ccccc4)cc3)c3c(N)ncnc32)C1)[C@H]1CCOC1 [Example 2j, (E)-1-((R)-3-(4-amino-3-(4-phenoxyphenyl)-1H-pyrazolo[3,4-d]pyrimidin-1-yl)piperidin-1-yl)-4-(methyl((S)-tetrahydrofuran-3-yl)amino)but-2-en-1-one]
Nc1ncnc2c1c(-c1ccc(Oc3ccccc3)cc1)nn2[C@@H]1CCN(C(=O)/C=C/CNC2CCCC2)C1 [Example 2z, (R,E)-1-(3-(4-amino-3-(4-phenoxyphenyl)-1H-pyrazolo[3,4-d]pyrimidin-1-yl)pyrrolidin-1-yl)-4-(cyclopentylamino)but-2-en-1-one]
Nc1ncnc2c1c(-c1ccc(Oc3ccccc3)cc1)nn2[C@@H]1CCCN(C(=O)/C=C/CNC2COC2)C1 [Example 2n, (R,E)-1-(3-(4-amino-3-(4-phenoxyphenyl)-1H-pyrazolo[3,4-d]pyrimidin-1-yl)piperidin-1-yl)-4-(oxetan-3-ylamino)but-2-en-1-one]
CN(C/C=C/C(=O)N1CCC[C@@H](n2nc(-c3ccc(Oc4ccccc4)cc3)c3c(N)ncnc32)C1)C1CCC1 [Example 2ak, (R,E)-1-(3-(4-amino-3-(4-phenoxyphenyl)-1H-pyrazolo[3,4-d]pyrimidin-1-yl)piperidin-1-yl)-4-(cyclobutyl(methyl)amino)but-2-en-1-one]
CN(C/C=C/C(=O)N1CC[C@@H](n2nc(-c3ccc(Oc4ccccc4)cc3)c3c(N)ncnc32)C1)C1CCCCC1 [Example 2w, (R,E)-1-(3-(4-amino-3-(4-phenoxyphenyl)-1H-pyrazolo[3,4-d]pyrimidin-1-yl)pyrrolidin-1-yl)-4-(cyclohexyl(methyl)amino)but-2-en-1-one]
CN1CCC(NC/C=C/C(=O)N2CCC[C@@H](n3nc(-c4ccc(Oc5ccccc5)cc4)c4c(N)ncnc43)C2)CC1 [Example 2ao, (R,E)-1-(3-(4-amino-3-(4-phenoxyphenyl)-1H-pyrazolo[3,4-d]pyrimidin-1-yl)piperidin-1-yl)-4-(1-methylpiperidin-4-ylamino)but-2-en-1-one]
CN1CCC(N(C)C/C=C/C(=O)N2CC[C@@H](n3nc(-c4ccc(Oc5ccccc5)cc4)c4c(N)ncnc43)C2)CC1 [Example 2ac, (R,E)-1-(3-(4-amino-3-(4-phenoxyphenyl)-1H-pyrazolo[3,4-d]pyrimidin-1-yl)pyrrolidin-1-yl)-4-(methyl(1-methylpiperidin-4-yl)amino)but-2-en-1-one]
CC(C)N(C/C=C/C(=O)N1CC[C@@H](n2nc(-c3ccc(Oc4ccccc4)cc3)c3c(N)ncnc32)C1)C1CCC1 [Example 2aq, (R,E)-1-(3-(4-amino-3-(4-phenoxyphenyl)-1H-pyrazolo[3,4-d]pyrimidin-1-yl)pyrrolidin-1-yl)-4-(cyclobutyl(isopropyl)amino)but-2-en-1-one]
Nc1ncnc2c1c(-c1ccc(Oc3ccccc3)cc1)nn2[C@@H]1CCN(C(=O)/C=C/CNC2COC2)C1 [Example 2g, (R,E)-1-(3-(4-amino-3-(4-phenoxyphenyl)-1H-pyrazolo[3,4-d]pyrimidin-1-yl)pyrrolidin-1-yl)-4-(oxetan-3-ylamino)but-2-en-1-one]
Nc1ncnc2c1c(-c1ccc(Oc3ccccc3)cc1)nn2[C@@H]1CCCN(C(=O)/C=C/CNC2CCCCC2)C1 [Example 2ah, (R,E)-1-(3-(4-amino-3-(4-phenoxyphenyl)-1H-pyrazolo[3,4-d]pyrimidin-1-yl)piperidin-1-yl)-4-(cyclohexylamino)but-2-en-1-one]
CCN(C/C=C/C(=O)N1CC[C@@H](n2nc(-c3ccc(Oc4ccccc4)cc3)c3c(N)ncnc32)C1)C1CCC1 [Example 2ap, (R,E)-1-(3-(4-amino-3-(4-phenoxyphenyl)-1H-pyrazolo[3,4-d]pyrimidin-1-yl)pyrrolidin-1-yl)-4-(cyclobutyl(ethyl)amino)but-2-en-1-one]
CC(C)N(C/C=C/C(=O)N1CCC[C@@H](n2nc(-c3ccc(Oc4ccccc4)cc3)c3c(N)ncnc32)C1)C1CC1 [Example 2t, (R,E)-1-(3-(4-amino-3-(4-phenoxyphenyl)-1H-pyrazolo[3,4-d]pyrimidin-1-yl)piperidin-1-yl)-4-(cyclopropyl(isopropyl)amino)but-2-en-1-one]
CN(C/C=C/C(=O)N1CC[C@@H](n2nc(-c3ccc(Oc4ccccc4)cc3)c3c(N)ncnc32)C1)[C@H]1CCOC1 [Example 2d, (E)-1-((R)-3-(4-amino-3-(4-phenoxyphenyl)-1H-pyrazolo[3,4-d]pyrimidin-1-yl)pyrrolidin-1-yl)-4-(methyl((S)-tetrahydrofuran-3-yl)amino)but-2-en-1-one]
CN(C/C=C/C(=O)N1CCC[C@@H](n2nc(-c3ccc(Oc4ccccc4)cc3)c3c(N)ncnc32)C1)[C@@H]1CCOC1 [Example 2h, (E)-1-((R)-3-(4-amino-3-(4-phenoxyphenyl)-1H-pyrazolo[3,4-d]pyrimidin-1-yl)piperidin-1-yl)-4-(methyl((R)-tetrahydrofuran-3-yl)amino)but-2-en-1-one]
